From patent US10729668B2, “Ketobutyrate compounds and compositions for treating age-related symptoms and diseases” (The Regents of the University of California, priority 2014, dated 2020) come the findings set out here.

The target of one series is T1, pyruvate dehydrogenase (Bos taurus, UniProt A7MB35+P11966).
T1 construct: purchased Abcam ab110338 (lysate); ab109902 (assay kit); host or cells: bovine heart mitochondrial lysate
Description: Pyruvate Dehydrogenase (PDH) Enzyme Activity Microplate Assay. The format is biochemical, bovine. The settings on record: vehicle mean as 100 percent. The method, then: To examine the effect of α-KB on pyruvate dehydrogenase, the Pyruvate Dehydrogenase (PDH) Enzyme Activity Microplate Assay Kit (Abcam, ab109902) was used. The assay was performed according to the protocol provided. Detergent was added to bovine heart mitochondrial lysate (Abcam, ab110338) and followed by an incubation at 4° C. for 20 minutes to release PDH. The sample was then centrifuged at 14,000×g for 10 minutes. Supernatant was diluted with the incubation buffer and added to a PDH antibody-coated 96-well plate. After 3 hours incubation followed by 2× wash with stabilizer buffer, the wells were added with 200 μL of reaction mix containing 10, 20, 50, 200, and 800 μM α-KB or vehicle control (distilled water). Each condition was performed in triplicates. Kinetic measurements of absorbance at 450 nm with 1 minute intervals were taken, and PDH activity was calculated from the slope of the absorbance to time. The readings were normalized to vehicle mean (as 100 percent).

Series [1] has as its system Aged mice (22-23 month old C57BL/6J). Description: Aged mice fed α-KB in drinking water for 7 months. The format is in vivo. The method, then:
Aged mice (22-23 month old C57BL/6J), including both males and females, were fed either water or α-KB (8 mM in drinking water or 90 mg/kg body weight) for 7 months. […] Mice were examined at least twice a week for signs of ill health, and severely sick or immobilized mice were subject to termination. The lifespan of α-KB treated male group was extended. All the males in untreated control group (5 of 5) died or were terminated due to severe illness before the completion of the 7 months test. Remarkably, most of the males in the α-KB treated group (4 of 5) lived healthily and were still in excellent health at the end of the 7 months study period.

Series [2] has as its target TOR (target of rapamycin) (Homo sapiens, UniProt P42345). Put plainly: TOR inhibition.
For series [3], the system named is NADH dehydrogenase (Complex I). Put plainly: NADH dehydrogenase (Complex I) driven coupling assay, isolated liver mitochondria (pyruvate and malate). The following applies: respiration driven by pyruvate and malate. The format is biochemical, mouse. The procedure: Animal studies were performed under approved UCLA animal research protocols. Mitochondria from 3-month-old C57BL/6 mice were isolated. Briefly, livers were extracted, minced at 4° C. in MSHE+BSA (70 mM sucrose, 210 mM mannitol, 5 mM HEPES, 1 mM EGTA, and 0.5% fatty acid free BSA, pH 7.2), and rinsed several times to remove blood. All subsequent steps were performed on ice or at 4° C. The tissue was disrupted in 10 volumes of MSHE+BSA with a glass Dounce homogenizer (5-6 strokes) and the homogenate was centrifuged at 800×g for 10 minutes to remove tissue debris and nuclei. The supernatant was decanted through a cell strainer and centrifuged at 8,000×g for 10 minutes. The dark mitochondrial pellet was resuspended in MSHE+BSA and re-centrifuged at 8,000×g for 10 minutes. The final mitochondrial pellet was resuspended in 30 μl of MAS buffer (70 mM sucrose, 220 mM mannitol, 10 mM KH2PO4, 5 mM MgCl2, 2 mM HEPES, 1 mM EGTA, and 0.2% fatty acid free BSA, pH 7.2). Isolated mitochondrial respiration was measured by running coupling and electron flow assays as described. […]
Mitochondrial respiration was measured by running coupling and electron flow assays. […]

Series [4] has as its system ETC Complex I diaphorase (NADH: acceptor oxidoreductase). Description: Complex I Enzyme Activity Microplate Assay (diaphorase). It counts as biochemical, bovine. The following applies: 200 and 800 μM. The procedure:
To assess if α-KB can affect the diaphorase (NADH: acceptor oxidoreductase) activity of Complex I, the Complex I Enzyme Activity Microplate Assay Kit (Abcam, ab109721) was used. The assay was performed according to the protocol provided. Bovine Heart Mitochondria lysate (Abcam, ab110338) was added with detergent, followed by incubation on ice for 30 minutes to release Complex I and then centrifuged at 12,000 g, 4° C. for 20 minutes. Supernatant was collected and diluted with the buffer provided and then added to a Complex I antibody-coated 96-well plate. After a 3 hour incubation followed by 2× wash with stabilizer buffer, the wells were added with 200 μL of reaction mix containing 50, 200, or 800 μM α-KB or vehicle control (distilled water). Each condition was performed in triplicates. Kinetic measurements of absorbance at 450 nm with 1 minute intervals were taken, and Complex I diaphorase activity was calculated from the slope of the absorbance to time. The readings were normalized to vehicle mean (as 100 percent).

T1 sequence (A7MB35 30-390): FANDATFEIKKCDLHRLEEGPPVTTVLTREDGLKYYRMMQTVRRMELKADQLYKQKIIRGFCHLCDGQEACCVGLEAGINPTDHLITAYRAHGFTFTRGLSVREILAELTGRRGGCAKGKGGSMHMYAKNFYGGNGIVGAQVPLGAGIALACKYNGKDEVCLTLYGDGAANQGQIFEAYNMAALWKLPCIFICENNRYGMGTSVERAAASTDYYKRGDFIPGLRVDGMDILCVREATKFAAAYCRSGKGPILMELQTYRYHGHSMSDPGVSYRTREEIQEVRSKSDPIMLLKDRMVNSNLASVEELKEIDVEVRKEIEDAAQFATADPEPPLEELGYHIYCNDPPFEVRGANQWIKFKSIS
T1 sequence (P11966 31-359): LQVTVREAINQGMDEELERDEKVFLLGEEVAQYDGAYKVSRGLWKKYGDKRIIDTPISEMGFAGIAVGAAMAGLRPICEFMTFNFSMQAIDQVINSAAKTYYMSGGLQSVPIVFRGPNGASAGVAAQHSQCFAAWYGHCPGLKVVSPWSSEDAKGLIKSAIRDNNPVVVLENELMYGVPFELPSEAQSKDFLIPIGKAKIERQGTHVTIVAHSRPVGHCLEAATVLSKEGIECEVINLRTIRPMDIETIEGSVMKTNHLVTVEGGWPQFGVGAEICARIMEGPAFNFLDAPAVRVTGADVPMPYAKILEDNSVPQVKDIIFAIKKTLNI
T1 sequence (P11180 87-647 partner): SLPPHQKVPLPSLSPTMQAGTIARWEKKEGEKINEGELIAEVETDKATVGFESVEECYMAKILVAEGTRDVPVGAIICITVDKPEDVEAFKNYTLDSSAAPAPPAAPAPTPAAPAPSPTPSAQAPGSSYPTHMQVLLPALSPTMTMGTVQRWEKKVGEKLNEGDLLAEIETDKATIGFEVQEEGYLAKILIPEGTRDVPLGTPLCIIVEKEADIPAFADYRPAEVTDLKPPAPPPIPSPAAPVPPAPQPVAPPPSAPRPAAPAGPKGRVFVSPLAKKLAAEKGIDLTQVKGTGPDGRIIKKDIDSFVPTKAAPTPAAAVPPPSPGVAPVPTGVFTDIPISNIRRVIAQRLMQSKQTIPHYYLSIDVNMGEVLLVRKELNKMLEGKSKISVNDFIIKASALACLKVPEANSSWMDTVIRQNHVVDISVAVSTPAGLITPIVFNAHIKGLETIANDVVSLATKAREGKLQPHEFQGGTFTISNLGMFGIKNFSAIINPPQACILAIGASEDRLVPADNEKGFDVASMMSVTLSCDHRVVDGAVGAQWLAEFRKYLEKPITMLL
T1 sequence (P22439 54-501 partner): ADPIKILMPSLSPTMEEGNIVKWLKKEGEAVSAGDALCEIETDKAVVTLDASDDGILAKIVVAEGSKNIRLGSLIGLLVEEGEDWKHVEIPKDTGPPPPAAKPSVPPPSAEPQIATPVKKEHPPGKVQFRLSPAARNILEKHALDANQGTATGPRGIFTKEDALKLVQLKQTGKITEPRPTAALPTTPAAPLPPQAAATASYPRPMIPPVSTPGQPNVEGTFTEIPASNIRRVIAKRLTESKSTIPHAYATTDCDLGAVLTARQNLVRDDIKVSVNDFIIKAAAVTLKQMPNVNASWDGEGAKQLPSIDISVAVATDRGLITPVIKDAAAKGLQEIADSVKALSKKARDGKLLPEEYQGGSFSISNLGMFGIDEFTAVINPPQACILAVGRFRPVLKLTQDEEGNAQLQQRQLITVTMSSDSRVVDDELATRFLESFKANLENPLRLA
T1 sequence (F1N206 36-509 partner): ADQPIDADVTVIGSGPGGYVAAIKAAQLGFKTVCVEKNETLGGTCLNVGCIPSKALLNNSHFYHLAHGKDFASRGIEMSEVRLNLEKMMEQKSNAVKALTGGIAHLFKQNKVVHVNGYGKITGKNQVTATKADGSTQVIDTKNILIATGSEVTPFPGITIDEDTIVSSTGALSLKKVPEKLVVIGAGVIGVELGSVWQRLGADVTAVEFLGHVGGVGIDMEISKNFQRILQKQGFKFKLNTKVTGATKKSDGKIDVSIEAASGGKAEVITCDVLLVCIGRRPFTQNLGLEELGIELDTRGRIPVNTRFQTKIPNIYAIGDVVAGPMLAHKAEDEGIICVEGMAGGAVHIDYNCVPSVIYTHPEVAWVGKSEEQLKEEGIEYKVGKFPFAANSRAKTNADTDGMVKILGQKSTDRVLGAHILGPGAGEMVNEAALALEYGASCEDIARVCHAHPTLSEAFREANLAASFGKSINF

As for `CCC(=O)C(=O)O` [α-KB, α-ketobutyrate], the “normalized PDH activity (percentage)” value at pyruvate dehydrogenase (200 μM) was 68.0±11.8 percentage. Besides, on pyruvate dehydrogenase (800 μM), the “normalized PDH activity (percentage)” value is listed as 41.6±7.89 percentage. Also, the adverse effects entry in series [1] (8 mM in drinking water or 90 mg/kg body weight, 7 months) is given as “no adverse effects”. Also, in series [1] (aged female mice), the “gray hair versus untreated group” value is given as “reduced” and the “lifespan, females, treated versus untreated” value is “indistinguishable”. In addition, the “hair density versus untreated control” value in series [1] (aged female mice, 7 months) is given as “higher”. Moreover, in series [1] (aged male mice), the “effect on gray hair and hair density” value was “minimal”; the “lifespan, male group” value is “extended”; the “males alive and healthy at end of the 7 months study period” value was 4 of 5. Also, the cataracts result in series [1] (aged mice) was “no cataracts”. The liver appearance entry in series [1] (male and female aged mice) is “greatly improved liver appearance”. Further, the “inhibition of TOR” value in series [2] is reported as “does not inhibit”. In series [3], the “ADP-induced and FCCP-induced respiration” value was “significant decrease”. Moreover, the “Complex I diaphorase activity” value in series [4] was “directly inhibits”.
